Measured values reported in patent publication US9382197B2, “Substituted hydroxamic acids and uses thereof” (Millennium Pharmaceuticals, Inc., priority 2010, dated 2016).
pIC50: −log10 of the molar value.

Target: T1, purified human HDAC6 (Homo sapiens, UniProt Q9UBN7)
T1 construct: purchased BPS Bioscience 5006
T1 sequence (Q9UBN7 1-1215): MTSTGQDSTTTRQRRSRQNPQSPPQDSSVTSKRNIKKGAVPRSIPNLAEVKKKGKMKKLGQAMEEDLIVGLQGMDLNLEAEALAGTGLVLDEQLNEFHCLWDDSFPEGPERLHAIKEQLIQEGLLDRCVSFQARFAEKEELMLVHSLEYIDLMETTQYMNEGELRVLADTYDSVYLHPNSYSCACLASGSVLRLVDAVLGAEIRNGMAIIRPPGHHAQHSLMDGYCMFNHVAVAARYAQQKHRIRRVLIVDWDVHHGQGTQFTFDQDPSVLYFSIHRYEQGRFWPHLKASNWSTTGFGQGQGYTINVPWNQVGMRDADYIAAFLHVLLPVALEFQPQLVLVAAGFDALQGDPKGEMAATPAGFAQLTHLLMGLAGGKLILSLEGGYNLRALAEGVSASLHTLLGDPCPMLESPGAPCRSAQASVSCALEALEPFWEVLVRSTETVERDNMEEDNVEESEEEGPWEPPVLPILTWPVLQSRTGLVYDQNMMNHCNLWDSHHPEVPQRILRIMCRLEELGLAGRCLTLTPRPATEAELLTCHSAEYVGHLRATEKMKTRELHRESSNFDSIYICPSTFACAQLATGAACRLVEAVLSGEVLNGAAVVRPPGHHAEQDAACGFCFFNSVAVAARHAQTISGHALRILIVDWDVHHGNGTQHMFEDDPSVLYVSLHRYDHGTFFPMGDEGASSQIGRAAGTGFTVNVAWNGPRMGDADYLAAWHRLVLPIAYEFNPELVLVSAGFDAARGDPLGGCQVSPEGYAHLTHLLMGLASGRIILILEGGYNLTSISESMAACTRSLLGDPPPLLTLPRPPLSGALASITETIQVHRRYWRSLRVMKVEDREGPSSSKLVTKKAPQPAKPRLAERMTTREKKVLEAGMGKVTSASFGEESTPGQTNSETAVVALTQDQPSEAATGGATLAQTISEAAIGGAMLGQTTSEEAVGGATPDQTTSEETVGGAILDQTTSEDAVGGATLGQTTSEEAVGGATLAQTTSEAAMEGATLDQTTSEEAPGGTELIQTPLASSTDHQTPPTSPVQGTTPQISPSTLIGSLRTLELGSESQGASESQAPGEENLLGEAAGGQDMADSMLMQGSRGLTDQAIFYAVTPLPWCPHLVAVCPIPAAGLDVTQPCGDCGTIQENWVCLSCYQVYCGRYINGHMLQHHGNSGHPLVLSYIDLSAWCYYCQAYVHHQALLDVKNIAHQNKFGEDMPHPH
Assay: HDAC6 Enzyme Assay
Assay type: biochemical
Conditions: for IC50: bin: greater than 500 nM and less than 1 μM (lower bound in nM, upper bound in μM)
How it was run: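 Deacetylated product quantified after trypsin digestion as released AMC (340/460 nm), following a 1 h, 30 °C reaction of human HDAC6 with Ac-RGK(Ac)-AMC peptide, quenched by trichostatin A. IC50 derived from DMSO-normalized curves.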

[1] = purified human HDAC6, substrate Ac-Arg-Gly-Lys(Ac)-AMC, 1 hour at 30° C., reported as bins

Compound | pIC50 [1] | other results
CC(C)[C@@H](NC(=O)c1cccn1C)c1ccc(C(=O)NO)cc1 [Compound I-65, N-((1R)-1-{4-[(hydroxyamino)carbonyl]phenyl}-2-methylpropyl)-1-methyl-1H-pyrrole-2-carboxamide] | > 7.00 | 
CCc1cc(C(=O)NC(C)c2cccc(C(=O)NO)c2)n(C)n1 (centres unmarked) [Compound I-216, 3-ethyl-N-(1-{3-[(hydroxyamino)carbonyl]phenyl}ethyl)-1-methyl-1H-pyrazole-5-carboxamide] |  | IC50: 500 to 1000 nM
O=C(NO)c1ccc([C@@H](NC(=O)C23CC4CC(CC(C4)C2)C3)c2ccccc2)cc1 [Compound I-259, N-[(S)-{4-[(hydroxyamino)carbonyl]phenyl}(phenyl)methyl]adamantane-1-carboxamide] |  | IC50: 500 to 1000 nM
C[C@@H](NC(=O)NC12CC3CC(CC(C3)C1)C2)c1cccc(C(=O)NO)c1 [Compound I-343, 3-[(1R)-1-({[1-adamantylamino]carbonyl}amino)ethyl]-N-hydroxybenzamide] |  | pIC50 (bin: greater than 1 μM): < 6.00
CC(C)C(=O)NC(C)c1ccc(C(=O)NO)cc1 (centres unmarked) [Compound I-36, N-hydroxy-4-[1-(isobutyrylamino)ethyl]benzamide] |  | pIC50 (bin: greater than 1 μM): < 6.00
CC(C)(C)C(NC(=O)c1csc2ccccc12)c1ccc(C(=O)NO)cc1 (centres unmarked) [Compound I-158, N-(1-{4-[(hydroxyamino)carbonyl]phenyl}-2,2-dimethylpropyl)-1-benzothiophene-3-carboxamide] | 6.30 to 7.00 | 
CC(NC(=O)C1CCCCC1)c1cccc(C(=O)NO)c1 (centres unmarked) [Compound I-149, 3-{1-[(cyclohexylcarbonyl)amino]ethyl}-N-hydroxybenzamide] |  | pIC50 (bin: greater than 1 μM): < 6.00
CC(C)C(NC(=O)c1cc(C(C)(C)C)nn1Cc1ccccc1)c1ccc(C(=O)NO)cc1 (centres unmarked) [Compound I-77, 1-benzyl-3-tert-butyl-N-(1-{4-[(hydroxyamino)carbonyl]phenyl}-2-methylpropyl)-1H-pyrazole-5-carboxamide] | 6.30 to 7.00 | 
CC(NC(=O)c1cscn1)c1cccc(C(=O)NO)c1 (centres unmarked) [Compound I-179, N-(1-{3-[(hydroxyamino)carbonyl]phenyl}ethyl)-1,3-thiazole-4-carboxamide] |  | IC50: 500 to 1000 nM
Cc1cc(C(=O)NO)ccc1C(C)NC(=O)c1cccn1C (centres unmarked) [Compound I-486, N-(1-{4-[(hydroxyamino)carbonyl]-2-methylphenyl}ethyl)-1-methyl-1H-pyrrole-2-carboxamide] |  | pIC50 (bin: greater than 1 μM): < 6.00
CC(C)C(NC(=O)c1cc2ccccc2o1)c1ccc(C(=O)NO)cc1 (centres unmarked) [Compound I-32, N-(1-{4-[(hydroxyamino)carbonyl]phenyl}-2-methylpropyl)-1-benzofuran-2-carboxamide] | > 7.00 | 
Cn1c(C(=O)NC(c2ccc(C(=O)NO)cc2)C(C)(C)C)cc2oc(-c3ccc(C(F)(F)F)cc3)cc21 (centres unmarked) [Compound I-248, N-(1-{4-[(hydroxyamino)carbonyl]phenyl}-2,2-dimethylpropyl)-4-methyl-2-[4-(trifluoromethyl)phenyl]-4H-furo[3,2-b]pyrrole-5-carboxamide] |  | pIC50 (bin: greater than 1 μM): < 6.00
CC(NC(=O)c1ccc(-c2ccccc2)cc1)c1cccc(C(=O)NO)c1 (centres unmarked) [Compound I-142, N-(1-{3-[(hydroxyamino)carbonyl]phenyl}ethyl)biphenyl-4-carboxamide] | 6.30 to 7.00 | 
CC(NC(=O)c1cc2ccccc2[nH]1)c1cccc(C(=O)NO)c1 (centres unmarked) [Compound I-227, N-(1-{3-[(hydroxyamino)carbonyl]phenyl}ethyl)-1H-indole-2-carboxamide] | 6.30 to 7.00 | 
CC(NC(=O)c1cc2oc(-c3ccc(C(F)(F)F)cc3)cc2n1C)c1cccc(C(=O)NO)c1 (centres unmarked) [Compound I-72, N-(1-{3-[(hydroxyamino)carbonyl]phenyl}ethyl)-4-methyl-2-[4-(trifluoromethyl)phenyl]-4H-furo[3,2-b]pyrrole-5-carboxamide] |  | pIC50 (bin: greater than 1 μM): < 6.00
CC(NC(=O)Cc1ccc2c(c1)OCO2)c1ccc(C(=O)NO)cc1 (centres unmarked) [Compound I-280, 4-{1-[(1,3-benzodioxol-5-ylacetyl)amino]ethyl}-N-hydroxybenzamide] |  | pIC50 (bin: greater than 1 μM): < 6.00
Cc1oc(-c2ccccc2)nc1CC(=O)NC(c1ccc(C(=O)NO)cc1)C(C)C (centres unmarked) [Compound I-48, N-hydroxy-4-(2-methyl-1-{[(5-methyl-2-phenyl-1,3-oxazol-4-yl)acetyl]amino}propyl)benzamide] | 6.30 to 7.00 | 
CC(NC(=O)C(C)(C)C)c1ccc(C(=O)NO)cc1 (centres unmarked) [Compound I-59, 4-{1-[(2,2-dimethylpropanoyl)amino]ethyl}-N-hydroxybenzamide] | > 7.00 | 

Further lines, with some results ahead:

pIC50 [1] | Compound | other results
> 7.00 | CC(NC(=O)Nc1cc(C(F)(F)F)ccc1F)c1ccc(C(=O)NO)cc1 (centres unmarked) [Compound I-334, 4-{1-[({[2-fluoro-5-(trifluoromethyl)phenyl]amino}carbonyl)amino]ethyl}-N-hydroxybenzamide] | 
> 7.00 | Cc1c(C(=O)N[C@@H](c2ccc(C(=O)NO)cc2)C(C)C)sc2ccccc12 [Compound I-307, N-((1R)-1-{4-[(hydroxyamino)carbonyl]phenyl}-2-methylpropyl)-3-methyl-1-benzothiophene-2-carboxamide] | 
> 7.00 | CC(NC(=O)C1CC=CCC1)c1ccc(C(=O)NO)cc1 (centres unmarked) [Compound I-348, 4-{1-[(cyclohex-3-en-1-ylcarbonyl)amino]ethyl}-N-hydroxybenzamide] | 
6.30 to 7.00 | C[C@@H](NC(=O)N[C@H](C)c1ccc(C(=O)NO)cc1)c1ccccc1 [Compound I-517, N-hydroxy-4-[(1R)-1-({[(1R)-1-phenylethyl]carbamoyl}amino)ethyl]benzamide] | 
> 7.00 | CC(C)Cc1cc(C(=O)NC(C)c2ccc(C(=O)NO)cc2)no1 (centres unmarked) [Compound I-286, N-(1-{4-[(hydroxyamino)carbonyl]phenyl}ethyl)-5-isobutylisoxazole-3-carboxamide] | 
> 7.00 | O=C(NO)c1ccc([C@H](NC(=O)c2cc3ccccc3s2)C2CC2)cc1 [Compound I-229, N-((R)-cyclopropyl{4-[(hydroxyamino)carbonyl]phenyl}methyl)-1-benzothiophene-2-carboxamide] | 
> 7.00 | CC(C)[C@@H](NC(=O)C12CC3CC(CC(C3)C1)C2)c1ccc(C(=O)NO)cc1 [Compound I-328, N-((1R)-1-{4-[(hydroxyamino)carbonyl]phenyl}-2-methylpropyl)adamantane-1-carboxamide] | 
6.30 to 7.00 | CC(C)C(NC(=O)c1cccc2ccccc12)c1ccc(C(=O)NO)cc1 (centres unmarked) [Compound I-331, N-(1-{4-[(hydroxyamino)carbonyl]phenyl}-2-methylpropyl)-1-naphthamide] | 
> 7.00 | C[C@@H](NC(=O)c1cc(Cl)c(Cl)n1C)c1ccc(C(=O)NO)cc1 [Compound I-359, 4,5-dichloro-N-((1R)-1-{4-[(hydroxyamino)carbonyl]phenyl}ethyl)-1-methyl-1H-pyrrole-2-carboxamide] | 
> 7.00 | CC(NC(=O)Nc1ccc(F)c(F)c1)c1ccc(C(=O)NO)cc1 (centres unmarked) [Compound I-275, 4-[1-({[(3,4-difluorophenyl)amino]carbonyl}amino)ethyl]-N-hydroxybenzamide] | 
> 7.00 | CC(C)C(NC(=O)c1ccc(-c2ccccc2)[nH]c1=O)c1ccc(C(=O)NO)cc1 (centres unmarked) [Compound I-375, N-(1-{4-[(hydroxyamino)carbonyl]phenyl}-2-methylpropyl)-2-oxo-6-phenyl-1,2-dihydropyridine-3-carboxamide] | 
> 7.00 | C[C@@H](NC(=O)Nc1c(F)cccc1F)c1ccc(C(=O)NO)cc1 [Compound I-518, 4-[(1R)-1-({[(2,6-difluorophenyl)amino]carbonyl}amino)ethyl]-N-hydroxybenzamide] | 
> 7.00 | CC(C)[C@@H](NC(=O)Nc1ccc(C#N)cc1)c1ccc(C(=O)NO)cc1 [Compound I-525, 4-[(1R)-1-({[(4-cyanophenyl)amino]carbonyl}amino)-2-methylpropyl]-N-hydroxybenzamide] | 
6.30 to 7.00 | CC(C)C(NC(=O)C1CCCC1)c1ccc(C(=O)NO)cc1 (centres unmarked) [Compound I-255, 4-{1-[(cyclopentylcarbonyl)amino]-2-methylpropyl}-N-hydroxybenzamide] | 
